# From patent publication US20030121069A1, “Disruption of the phosphodiesterase 10 gene” (Pfizer Inc., priority 2001, published 2003)
# Where two headings read alike, the source gives them in different places.
# Tests used:
# PDE10A+/+ and −/− mice = assay: Conditioned avoidance responding in PDE10A+/+ and −/− mice; conditions: for ED50: Mus musculus
# Description: In the conditioned avoidance paradigm, animals are trained to move from a dark chamber in a shuttle box to a lighted chamber upon presentation of a conditioned stimulus in order to avoid a foot shock.
# The conditioned avoidance shuttle chambers consist of individual Plexiglas behavior chambers (Coulbourn Instruments); each chamber divided by a guillotine door into two sides enclosed in sound attenuating cabinets. The Plexiglas chambers are fitted with metal grid floors, which are equipped with scrambled/constant current shockers. Mice are trained to avoid the onset of footshock (0.6 miliampere) by moving to the opposite side of the chamber upon activation of house lights, que lights, and the opening of the guillotine door, all of which occur 5 seconds prior to the foot shock. A computer program is used to record the number of successful avoidance responses (animals cross before onset of shock), as well as the number of escapes (where animals receive the foot shock and then cross), escape failures (where animals receive the foot shock yet still fail to cross), and the latencies to avoid (max 5 sec.) or escape (max.10 sec.) Thirty trials are completed per daily session, and inter-trial intervals are 15 seconds with the guillotine door closed. […] Vehicle treatment is performed one day every week and statistical analysis is done comparing each drug treatment on separate days vs. the vehicle treatment that week. Testing is performed during the lights on period of the light/dark cycle, typically between 8 am and 11 am. The data is analyzed using a paired t-test.
# PDE10A [1] = assay: cGMP level in striatal and cortical extracts of PDE10A+/+ and −/− mice after Papaverine (enzyme immunoassay); type: in vivo; conditions: PDE10A −/− mice, 32 mg/kg intraperitoneally, 15 minutes, vs vehicle
# Procedure: (§1) Fifteen minutes afterwards, mice were euthanized by focused-beam microwave irradiation of the head (2 second exposure in a Litton Systems 70/50 microwave, model BN-K2, General Medical Engineering Corp., Peabody, Mass.) to prevent enzymatic degradation of cyclic nucleotides. Striatal and cortical regions were isolated and stored at −80° C. until analysis. Samples were homogenized in 0.5 N HCl and then centrifuged at 20,000×g for 30 minutes. The cGMP concentrations in the supernatants were determined using enzyme immunoassay kits (Cayman Chemical, Ann Arbor, Mich., USA) according to the manufacturer's instructions.
# PDE10A [2] = biological target: T1, PDE10A (Mus musculus, UniProt Q8CA95); assay: as above; type: in vivo; conditions: PDE10A+/+ mice, 32 mg/kg intraperitoneally, 15 minutes, vs vehicle
# T1 construct: from tissue; host or cells: mouse brain in vivo (striatum and cortex); DBA/1LacJ-derived PDE10A +/+ and −/− mice
# T1 sequence (Q8CA95 1-779 isoform Q8CA95-2): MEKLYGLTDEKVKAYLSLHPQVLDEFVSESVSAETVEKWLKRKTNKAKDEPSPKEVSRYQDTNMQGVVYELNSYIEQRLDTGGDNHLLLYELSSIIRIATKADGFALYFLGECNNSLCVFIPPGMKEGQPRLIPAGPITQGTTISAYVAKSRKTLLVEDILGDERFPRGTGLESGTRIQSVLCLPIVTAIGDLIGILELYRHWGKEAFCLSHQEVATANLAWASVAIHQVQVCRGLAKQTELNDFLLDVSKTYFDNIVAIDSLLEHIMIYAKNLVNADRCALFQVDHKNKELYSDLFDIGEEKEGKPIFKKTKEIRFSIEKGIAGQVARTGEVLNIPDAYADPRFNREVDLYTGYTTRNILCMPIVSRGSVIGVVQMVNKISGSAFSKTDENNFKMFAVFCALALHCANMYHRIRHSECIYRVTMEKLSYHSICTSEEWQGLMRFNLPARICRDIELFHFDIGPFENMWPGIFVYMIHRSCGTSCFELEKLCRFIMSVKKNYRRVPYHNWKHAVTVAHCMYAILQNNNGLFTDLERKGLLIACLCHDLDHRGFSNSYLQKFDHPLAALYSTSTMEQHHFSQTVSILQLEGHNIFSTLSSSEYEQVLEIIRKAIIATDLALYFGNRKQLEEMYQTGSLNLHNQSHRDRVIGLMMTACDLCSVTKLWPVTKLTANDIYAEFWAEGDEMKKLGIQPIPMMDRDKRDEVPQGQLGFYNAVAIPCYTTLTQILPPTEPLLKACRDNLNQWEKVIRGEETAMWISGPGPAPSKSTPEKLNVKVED
# Procedure: as §1
# PDE10A [3] = conditions: cited from earlier work
# [4] = read-out: ED50, inhibition of conditioned avoidance responding, PDE10A+/+ mice
Compound,"ED50 (PDE10A+/+ and −/− mice; read-out: ED50, inhibition of conditioned avoidance responding, PDE10A −/− mice)",ED50 (PDE10A+/+ and −/− mice; [4]),striatal cGMP level (PDE10A [1]),cGMP level from striatal extracts (PDE10A [2]),cGMP level in cortical extracts (PDE10A [2]),"inhibition of conditioned avoidance responding (PDE10A+/+ and −/− mice; PDE10A −/− mice, doses up to 56 mg/kg)","effect on escape failures (PDE10A+/+ and −/− mice; PDE10A+/+ mice, highest dose tested (56 mg/kg))",Vmax for cGMP over cAMP (PDE10A [3]),Km (PDE10A [3]; read-out: Km (affinity of PDE10A for substrate))
O=C(CCCN1CCC(O)(c2ccc(Cl)cc2)CC1)c1ccc(F)cc1 [Haloperidol],0.29 mg/kg,0.21 mg/kg,–,–,–,–,–,–,–
COc1ccc(Cc2nccc3cc(OC)c(OC)cc23)cc1OC [Papaverine],–,20.7 mg/kg,only a slight increase,more than two fold elevation,no effect,failed to inhibit,no effect,–,–
"Nc1nc2c(ncn2[C@@H]2O[C@@H]3COP(=O)(O)O[C@H]3[C@H]2O)c(=O)[nH]1 [cGMP, cyclic guanine 3′5′-monophosphate]",–,–,–,–,–,–,–,approximately 5 fold,3 µM
